# Patent publication US12377069B2, “Compounds, compositions, methods of using, and methods for preparing compounds” (UNIVERSITY OF LOUISVILLE RESEARCH FOUNDATION, INC., priority 2018, dated 2025)
# Columns and labels:
# [1] = system: mouse bone marrow derived macrophages (BMDMs); experiment: LPS-induced IL-6 and TNF-α in BMDM; assay type: cell-based; conditions: for LPS-induced IL-6 production in AhR^−/− macrophages: AhR^−/− BMDM, up to 30 NM; for LPS induced IL-6 and TNF-α: 0.1-50 μM; for IL-6 in Nrf2^−/− (fold reduction; TNBS model and LPS-induced BMDM): Nrf2^−/− vs WT
# Protocol: Measurements of IL-6 and TNF-α in BMDM: BMDM were plated in 96 (10,000 cells/well) and 12 wells (0.1×10^6 cells/well) plate for ELISA and RNA isolation. To evaluate the anti-inflammatory properties, BMDMs were stimulated with E. coli-derived lipopolysaccharides (LPS; 055:B5; Sigma) at 50 ng/mL concentration for six hours alone or in combination with UroA or UAS03 at indicated concentrations (0.01, 0.1, 1, 10, 25, 50 μM) in quadruplicates. For cytokine production via ELISA, the supernatant was collected and centrifuged at 10,000×g for 10 min at 4° C. to pellet down any cell and cytokines were quantified using IL-6 and TNF-α specific ELISA kit (Biolegend) following manufacturer's instruction.
# Screening for anti-inflammatory activities: Mouse bone marrow derived macrophages (BMDM) were plated in 96 wells plate for ELISA. To evaluate the anti-inflammatory properties, BMDMs were stimulated with E. coli-derived lipopolysaccharides (LPS; 055:B5; Sigma) at 50 ng/mL concentration for six hours alone or in combination with compounds at indicated concentrations in quadruplicates. For cytokine production via ELISA, the supernatant was collected and centrifuged at 12,000 rpm for 10 min at 4° C. to pellet down any cell and cytokines were quantified using IL-6 and TNF-α specific ELISA kit (Biolegend) following manufacturer's instruction. LPS induced IL-6 or TNF-α considered as 100%.
# AhR = AhR nuclear translocation; assay type: cell-based, human; conditions: HT29, 50 μM
# Protocol: Confocal Imaging: HT29 or CaCo2 or BMDM cells (50,000 cells/well) were plated on to 8-well chambered slides (154534PK; ThermoFisher Scientific) allowed them to grow overnight. The cells were induced with vehicle (0.01% DMSO) or UroA (50 μM) or UAS03 (50 μM) for desired time points and fixed with cold methonol. The AhR or Nrf2 or Cldn4 stained with respective antibodies (1:200 dilution) followed by fluorecently labelled (Alexa flour 594 for AhR and Alexa flour 488 for Nrf2 and Cldn4) secondary ab (1:500 dilution; ThermoFisher Scientific). The nucleus was stained with DAPI (Sigma Aldrich). The confocal images were captured using Nikon AIR confocal microscope using 60× magnification lense with appropriate laser channels.
# colon explants = experiment: Colon explant culture; parameters: species or system mouse; conditions: 50 μM, 24 h
# Protocol: Colon explant culture: Colon tissue pieces (0.5-1 cm length) from wild type (C57BL/6) or Nrf2^−/− or AhR^−/− mice were cultured in triplicates for 24 h in complete DMEM-high glucose medium (supplemented with 10% fetal bovine serum, 1× penicillin-streptomycin solution) in a humidified atmosphere in the presence of vehicle (0.01% DMSO), UroA (50 μM) or UAS03 (50 μM). The tissues were processed for protein preparation (tissue lysates with RIPA plus buffer) or total RNA isolation. These tissue lysates or RNA were used to determine the expression of Nrf2, Cldn4 and AhR.
# C57BL/6 mice = experiment: DSS-induced acute colitis; assay type: in vivo, mouse; conditions: oral 20 mg/kg on day 4 and 6
# Protocol: DSS-induced colitis: Acute experimental colitis in mice was induced by giving 3% (w/v) colitis grade DSS (MP Biomedicals) in drinking water for 7 days. Control animal received drinking water without DSS. All colitis group mice were randomly divided into three groups viz. vehicle treated (0.25% Na-CMC), UroA (20 mg/kg/day) and UAS03 (20 mg/kg/day) on the 4th and 6th day of DSS treatment. After 7 days, animals were put back on regular water for a period of 7 days. For chronic DSS colitis model, we used three cycles of 2.0% (w/v) DSS and each DSS cycle consisted or 7 days followed by 10 days of regular water and mice were treated with UroA (20 mg/kg/day) on every 4th and 6th day of DSS cycle.
# Assessment of colitis severity and tissue collection: Mice were evaluated daily for change in body weight, stool consistency and rectal bleeding and score was given and combined to obtained disease activity index (MURTHY et al., (1993) “Treatment of dextran sulfate sodium-induced murine colitis by intracolonic cyclosporin” Dig Dis Sci, Vol. 38, pp. 1722-1734). After euthanasia, the colon was removed and flushed with PBS containing (1 mM PMSF and 0.2 mM sodium orthovanadate). Colon length and colon weight were measured and small parts of colon were excised for myeloperoxidase (MPO) activity and RNA isolation. Tissues for MPO and RNA extraction were snap frozen in liquid nitrogen and stored in −80° C. until further analysis. Tissue for histological examination was stored in 10% phosphate buffered saline formalin. Blood was collected and serum was separated by centrifugation at 3500×g for 15 min. Serum cytokines (IL-6, TNF-α; Biolegend) and chemokines (CXCL1; R&D Systems) levels were measured by ELISA according to manufacturer's instructions.
# In vivo intestinal permeability assay: The gut barrier function was evaluated by in vivo intestinal permeability using FITC-Dextran (MW 4000; FD4, Sigma-Aldrich, USA) (FURUTA et al., (2001) “Hypoxia-inducible factor 1-dependent induction of intestinal trefoil factor protects barrier function during hypoxia” J Exp Med, Vol. 193, pp. 1027-1034). Briefly, mice were orally administered with FITC-dextran (60 mg/100 gm body weight). Mice were fasted for 4 h prior to euthanization. The FITC-dextran concentration in serum was determined using the standard curve of FITC-dextran in serum (excitation, 485 nm; emission, 525 nm; BMG LABTECH).
# NF-κB = NF-κB EMSA assay; assay type: cell-based, mouse; conditions: LPS 50 ng/mL, 6 hr
# Protocol: NF-κB EMSA assay: RAW 264.7 cells or BMDM were plated in 100 mm dishes (1×10^6) in DMEM supplemented with 10% fetal bovine serum (FBS), 100 U/ml penicillin, and […]. Cells were allowed to grow for 24 hr and after incubation, cells were treated with LPS (50 ng/mL) with and without UroA (50 μM) and UAS03 (50 μM) for 6 hr. After treatments, culture medium was removed and washed with PBS. Cells were scraped and pelleted down in PBS. Supernatant was discarded and pellet was used for isolation of nuclear and cytosolic protein using NE-PER Nuclear and Cytoplasmic kit (Thermo Scientific; Cat #78833). Later nuclear protein (2 μg) was used for EMSA using Non-Radioactive EMSA Kits with IR Fluo-Probes for Nuclear factor kappa B p65 (Viagene Biotech Inc Cat #IRTF282 60).
SMILES,LPS-induced IL-6 production in AhR^−/− macrophages [1],"anti-inflammatory activities (LPS-induced IL-6 and TNF-α), analogue screening ([1]; LPS 50 ng/mL, six hours, compared UroA)","concentrations showing anti-inflammatory activities ([1]; LPS 50 ng/ml, 6 h)","LPS induced IL-6 and TNF-α ([1]; LPS 50 ng/ml, 6 h)",IL-6 in Nrf2^−/− (fold reduction; TNBS model and LPS-induced BMDM) [1],nuclear translocation of AhR (AhR),Cldn4 and NQO1 in Nrf2^−/− and AhR^−/− colon explants (colon explants),"expression of Nrf2, NQO1 and Cldn4 in WT colon explants (colon explants)",3% DSS induced acute colitis (C57BL/6 mice),DAI scores during disease progression (C57BL/6 mice),LPS-induced NF-κB activation in macrophages (NF-κB)
"Oc1ccc2c(c1)COc1cc(O)ccc1-2 [UAS03, 6H-benzo[c]chromene-3,8-diol]",did not block,effective anti-inflammatory compounds,nano molar concentrations,decreased,reduced IL-6 in Nrf2^−/− similar to WT,induced the nuclear translocation,did not appear to induce,induced the expression,protected from 3% DSS induced acute colitis,overall decreased DAI scores,reduced the NF-κB activation
"O=c1oc2cc(O)ccc2c2ccc(O)cc12 [UroA, 3,8-dihydroxy-6H-dibenzo[b,d]pyran-6-one]",did not block,,,decreased,reduced IL-6 in Nrf2^−/− similar to WT,induced the nuclear translocation,did not appear to induce,induced the expression,protected from 3% DSS induced acute colitis,overall decreased DAI scores,reduced the NF-κB activation
